# Article PMC7157825, “Romo1-Derived Antimicrobial Peptide Is a New Antimicrobial Agent against Multidrug-Resistant Bacteria in a Murine Model of Sepsis” (mBio, 2020)
# Where no end group is shown, it is not given here.
# B1: Romo1: reactive oxygen species modulator 1, chemically synthesized, dissolved in 75% trifluoroethanol (peptide, UniProt P60602 2-79, looked up)
# Reactive oxygen species …: PVAVGPYGQSQPSCFDRVKMGFVMGCAVGMAAGALFGTFSCLRIGMRGRELMGGIGKTMMQSGGTFGTFMAIGMGIRC
# Columns and labels:
# [1] = Functional half-life of antimicrobial activity in human serum; type: in vitro ADME; conditions: human serum (H4522; Sigma-Aldrich); pre-incubation 0, 5, 15, 30, 45, 60, or 75 min, then P. aeruginosa or S. aureus for 1 h; read-out CFU assay (antimicrobial activity)
# [2] = test system: Vancomycin-resistant E. faecium; type: cell-based, Enterococcus faecium; conditions: 1 h, pH 7.4
# Method: (§1) The minimum bactericidal concentration was determined as previously described with minor modifications ([29]). Briefly, bacteria (5 × 10^5 CFU/ml) in 10 mM phosphate buffer (pH 7.4) with a 1% volume of TS broth were incubated with various peptide dilutions in a 96-well plate. After incubation for 1 h, samples were placed on TS agar plates and incubated overnight at 37°C. The peptide concentration at which no colonies were identified on the plate was determined to be the MBC.
# GFP-expressing EIEC = assay: GFP efflux / permeabilization of GFP-expressing EIEC; type: cell-based, Enteroinvasive Escherichia coli
# Method: Flow cytometric assay to measure the efflux of GFP from GFP-expressing EIEC was performed using a FACS Canto II (Biosciences, CA). […] The number of internalized EIEC in HeLa cells (pcDNA 3.1 or pcDNA 3.1-Flag-Romo1/Control siRNA, Romo1 siRNA-1, or Romo1 siRNA-2) was measured using CFDA-stained EIEC. The data were measured and analyzed with FlowJo software (Tree Star, Inc., Ashland, OR).
# S. aureus (ATCC 29213) [3] = assay: Murine model of sepsis; type: in vivo, mouse
# [4] = test system: Vancomycin-resistant S. aureus; type: cell-based, Staphylococcus aureus; conditions: 1 h, pH 7.4
# Method: as §1
# [5] = Effect of blood components on antimicrobial activity; type: in vitro ADME; conditions: mouse RBCs, human LDL, human HDL, bovine serum albumin; incubated for indicated times, then bacteria 1 h; CFU assay
# MRSA = assay: Murine model of sepsis caused by MDR bacteria; type: in vivo, mouse; conditions: for increase of survival rate: 3 × 10^8 CFU iv, AMPR-11 10 mg/kg iv single dose, imipenem 10 mg/kg ip four times q12h, 15 mice/group
# C57BL/6 mouse = assay: Single-dose safety in mice; conditions: single dose 100 mg/kg intravenously; tracked for 15 days; compared to PBS
# [6] = Protein lipid overlay (PLO) assay; type: binding; conditions: TAMRA-AMPR-11 2 μg/ml, 2 h; 20 pmol of each lipid (PC, PG, PS, PE, PA, PI, lipid A, CL) on nitrocellulose
# Method: The experiment was performed as previously described ([53]) with minor modifications. The lipid of PC, PG, PS, PE, PA, PI, lipid A, or CL was diluted and placed on the supported nitrocellulose membrane at 20 pmol and dried at room temperature. The membrane was blocked with Tris-buffered saline-Tween 20 (TBS-Tween 20, 50 mM Tris-HCl, 150 mM NaCl, and 0.1% Tween 20) containing 0.2% fatty acid-free bovine albumin for 1 h. After several washes in TBS, the membrane was incubated with TAMRA-AMPR-11 at 2 μg/ml in blocking solution for 2 h. After several washes with TBS-Tween 20, the fluorescent signal was detected using a fluorescent image scanner (Typhoon FLA 9500).
# [7] = CF release from CF-encapsulated large unilamellar vesicles; conditions: 1 μg/ml of peptide; fluorescence; compared with melittin, magainin 2, daptomycin
# Method: Portions (10 μl) of the lipid mixture of E. coli total lipid extract were dried and rehydrated with 50 mM CF, 100 mM sucrose, and 5 mM HEPES/KOH (pH 7.4). Multilamellar liposomal suspensions were extruded with a 0.1-μm polycarbonate membrane using an Avanti Mini Extruder and purified by a PD-10 column (GE Healthcare, Buckinghamshire, United Kingdom) as previously described. The peptides were added to LUVs, and CF leakage was measured using Fluroskan Ascent FL (Thermo Labsystems, UK) in external buffer (150 mM KCl and 10 mM HEPES/Tris; pH 7). CF leakage was calculated using the following formula: CF leakage (%) = 100 × (F – F0)/(Fmax – F0), where F is the measured fluorescence intensity, F0 is the basal LUV fluorescence intensity, and Fmax is the fluorescence intensity of LUVs treated with 0.2% Triton X-100.
# [8] = test system: P. aeruginosa (ATCC 27853); assay: Murine model of sepsis; type: in vivo, mouse
# CRPA = assay: Murine model of sepsis caused by MDR bacteria; type: in vivo, mouse; conditions: for increase of survival rate: 8 × 10^7 CFU iv, AMPR-11 10 mg/kg iv single dose, imipenem 10 mg/kg ip four times q12h, 15 mice/group
# Mouse RBCs = type: cell-based
# Method: Mouse RBCs were rinsed several times with PBS and centrifuged for 10 min at 2,000 rpm. […] After incubating for 1 h, the cells were pelleted at 1,000 × g for 10 min, and the absorbance of the supernatant was measured at 570 nm. The OD of the control was that of PBS (blank), and 1% Triton X-100 was used as the positive control.
# [9] = test system: K. pneumoniae (ATCC 13883); assay: Murine model of sepsis; type: in vivo, mouse
# [10] = Functional half-life of antimicrobial activity in mouse plasma; type: in vitro ADME; conditions: 75% PBS and 25% mouse plasma (EDTA separation); pre-incubation 0, 5, 15, 30, 45, 60, or 75 min, then P. aeruginosa or S. aureus for 1 h; read-out CFU assay (antimicrobial activity)
# S. pneumoniae = type: cell-based; conditions: 1 h, pH 7.4
# Method: as §1
# CRAB = assay: Murine model of sepsis caused by MDR bacteria; type: in vivo, mouse; conditions: 5 × 10^8 CFU iv; AMPR-11 10 mg/kg iv single dose; imipenem 10 mg/kg ip four times q12h; 15 mice/group
# CRKP = assay: Murine model of sepsis caused by MDR bacteria; type: in vivo, mouse; conditions: 8 × 10^8 CFU iv; AMPR-11 10 mg/kg iv single dose; imipenem 10 mg/kg ip four times q12h; 15 mice/group
# [11] = test system: A. baumannii (ATCC 19606); assay: Murine model of sepsis; type: in vivo, mouse
# [12] = test system: P. aeruginosa (ATCC 27853); type: cell-based, Pseudomonas aeruginosa; conditions: ATCC 27853, 1 h, pH 7.4
# Method: as §1
# S. aureus (ATCC 29213) [13] = type: cell-based, Staphylococcus aureus; conditions: ATCC 29213, 1 h, pH 7.4
# Method: as §1
# EIEC = EIEC growth by spectrophotometry; type: cell-based, Enteroinvasive Escherichia coli; conditions: 1 μg/ml of Romo1 protein
# [14] = mouse blood after 48 h of infection, 10 mg/kg iv single dose
# [15] = peptides iv 1 h after infection, tail vein blood 1 h after peptide administration
molecule,measurement,setting,value
KTMMQSGGTFGTFMAIGMGIR [AMPR-11],functional half-life in serum,[1],~40 min
same,MBC value Vancomycin-resistant E. faecium,[2],100 µg/mL
same,time to kill bacteria,"GFP-expressing EIEC; Fig. 2E, TAMRA-AMPR-11 with GFP-expressing EIEC",≤ 10 min
same,bacterial load in blood over time,"S. aureus (ATCC 29213) [3]; AMPR-11 administered immediately after infection, tail vein blood, CFU relative to PBS group",rapidly decreased the bacterial load in blood
same,increase of survival rate,"S. aureus (ATCC 29213) [3]; C57BL/6N mice, 1 × 10^8 CFU iv, AMPR-11 10 mg/kg iv single dose 1 h after infection, 20 mice/group, 15 days",> 60%
same,bacterial load in blood,S. aureus (ATCC 29213) [3]; [14],decrease in the bacterial load in blood
same,MBC value Vancomycin-resistant S. aureus,[4],120 µg/mL
same,antimicrobial activity after incubation with blood components,[5],"not inhibited by RBCs, LDL, HDL, or albumin"
same,increase of survival rate,MRSA,> 60%
same,"bacterial load in the liver, spleen, and kidney","MRSA; CFU assay of organ homogenates, 10 mg/kg iv single dose","decrease in bacterial load in the liver, spleen, and kidney"
same,antimicrobial activity in blood (CFU counts) compared with known AMPs,MRSA; [15],"statistically better than that of magainin 2, LL-37, or daptomycin"
same,"clinical signs (death, weight loss)",C57BL/6 mouse,no severe clinical signs such as death or weight loss
same,lipid preference (binding),[6],specifically bound to lipid A and cardiolipin (CL)
same,CF release,[7],to a similar extent as melittin
same,increase of survival rate,"[8]; C57BL/6N mice, 2 × 10^7 CFU iv, AMPR-11 10 mg/kg iv single dose 1 h after infection, 20 mice/group, 15 days",> 60%
same,bacterial load in blood,[8]; [14],decrease in the bacterial load in blood
same,increase of survival rate,CRPA,> 60%
same,antimicrobial activity in blood (CFU counts) compared with known AMPs,CRPA; [15],"statistically better than that of magainin 2, LL-37, or daptomycin"
same,hemolytic activity,Mouse RBCs,less cytotoxicity (Fig. 4A) and hemolytic activity (Fig. 4B) than magainin 2 and daptomycin
same,increase of survival rate,"[9]; C57BL/6N mice, 8 × 10^8 CFU iv, AMPR-11 10 mg/kg iv single dose 1 h after infection, 15 mice/group, 15 days",> 60%
same,bacterial load in blood,[9]; [14],decrease in the bacterial load in blood
same,functional half-life in plasma,[10],approximately 50 min
same,MBC value S. pneumoniae,S. pneumoniae,100 µg/mL
same,increase of survival rate,CRAB,> 60%
same,increase of survival rate,CRKP,> 60%
same,increase of survival rate,"[11]; C57BL/6N mice, 4 × 10^8 CFU iv, AMPR-11 10 mg/kg iv single dose 1 h after infection, 15 mice/group, 15 days",> 60%
same,bacterial load in blood,[11]; [14],decrease in the bacterial load in blood
GGIGKTMMQSGGTFGTFMAIGMGIR [G54-R78],MBC value P. aeruginosa,[12],300 µg/mL
same,MBC value S. aureus,S. aureus (ATCC 29213) [13],300 µg/mL
KTMMQSGGTFGTFMAIGMG [K58-G76],MBC value P. aeruginosa,[12],300 µg/mL
same,MBC value S. aureus,S. aureus (ATCC 29213) [13],300 µg/mL
KTMMQSGGTFGTFMAIGMGI [K58-I77],MBC value P. aeruginosa,[12],300 µg/mL
same,MBC value S. aureus,S. aureus (ATCC 29213) [13],300 µg/mL
"C[C@@H](O)[C@H]1C(=O)N2C(C(=O)O)=C(SCCN=CN)C[C@H]12 [imipenem, reference compound]",increase of survival rate,MRSA,of little effectiveness
same,increase of survival rate,CRPA,of little effectiveness
same,increase of survival rate,CRAB,of little effectiveness
same,increase of survival rate,CRKP,of little effectiveness
LMGGIGKTMMQSGGTFGTFMAIGMGIR [L52-R78],MBC value P. aeruginosa,[12],300 µg/mL
same,MBC value S. aureus,S. aureus (ATCC 29213) [13],300 µg/mL
IGKTMMQSGGTFGTFMAIGMGIR [I56-R78],MBC value P. aeruginosa,[12],300 µg/mL
same,MBC value S. aureus,S. aureus (ATCC 29213) [13],300 µg/mL
GKTMMQSGGTFGTFMAIGMGIRC [G57-C79],MBC value P. aeruginosa,[12],250 µg/mL
same,MBC value S. aureus,S. aureus (ATCC 29213) [13],280 µg/mL
GGIGKTMMQSGGTFGTFMAIGMGIRC [G54-C79],MBC value P. aeruginosa,[12],300 µg/mL
same,MBC value S. aureus,S. aureus (ATCC 29213) [13],300 µg/mL
IGKTMMQSGGTFGTFMAIGMGIRC [I56-C79],MBC value P. aeruginosa,[12],300 µg/mL
same,MBC value S. aureus,S. aureus (ATCC 29213) [13],300 µg/mL
LMGGIGKTMMQSGGTFGTFMAIGMGIRC [L52-C79],MBC value P. aeruginosa,[12],300 µg/mL
same,MBC value S. aureus,S. aureus (ATCC 29213) [13],300 µg/mL
GKTMMQSGGTFGTFMAIGMGIR [G57-R78],MBC value P. aeruginosa,[12],280 µg/mL
same,MBC value S. aureus,S. aureus (ATCC 29213) [13],300 µg/mL
KTMMQSGGTFGTFMAIGM [K58-M75],MBC value P. aeruginosa,[12],300 µg/mL
same,MBC value S. aureus,S. aureus (ATCC 29213) [13],300 µg/mL
KTMMQSGGTFGTFMAIGMGIRC [K58-C79],MBC value P. aeruginosa,[12],130 µg/mL
same,MBC value S. aureus,S. aureus (ATCC 29213) [13],150 µg/mL
MMQSGGTFGTFMAIGMGIRC [M60-C79],MBC value P. aeruginosa,[12],> 300 µg/mL
same,MBC value S. aureus,S. aureus (ATCC 29213) [13],> 300 µg/mL
MMQSGGTFGTFMAIGMGIR [M60-R78],MBC value P. aeruginosa,[12],300 µg/mL
same,MBC value S. aureus,S. aureus (ATCC 29213) [13],300 µg/mL
B1,GFP efflux,"GFP-expressing EIEC; 100 nM Romo1, flow cytometry",induced green fluorescent protein (GFP) efflux
same,bacterial growth,EIEC,inhibited EIEC growth
